Measurements: US11878972B2, “Treatment of neurological disorders” (TORQUR AG, priority 2016, dated 2024)
One block for each molecule: values may come before it.

Tests used:
[1] = target: T1, N-terminally GST-tagged mTOR (truncated version: amino acids 1360-2549) (Homo sapiens, UniProt P42345); assay: In vitro mTOR binding assay (LanthaScreen TR-FRET); details: 3 nM GST-mTOR, 10 nM Tracer 314, 30 min at RT
T1 construct: truncated version: amino acids 1360-2549; purchased Life Technologies PR8683B

[2] = system: S6 phosphorylation (S235/236); assay: mTOR signaling in brain samples of pilocarpine pre-treated and naïve mice (western blot); format: in vivo, mouse; details: for decrease of S6 phosphorylation (S235/236) versus control: brain, 3 hours after single oral dose: Cpd. 3 40 mg/kg, Cpd. 8 25 mg/kg, everolimus 5 mg/kg
Description: A ramping-up dosing protocol was used which has the advantage that pilocarpine can be individually applied according to the susceptibility of each mouse. Pilocarpine (Sigma-Aldrich, Germany) was administered to female NMRI mice intraperitoneally at a dose of 100 mg/kg (Pilo-SE group). […] To reduce peripheral side effects of pilocarpine, methylscopolamine (Sigma-Aldrich, Germany) was administered 30 minutes prior to the first injection of pilocarpine. Animals were continuously monitored and duration of convulsive SE was registered [referred to Racine's scale. SE onset was defined as continuous ongoing seizure activity following occurrence of one or two generalized tonic-clonic seizures [stage 4 or 5 on the Racine scale]. SE was characterized by head nodding in an upright (sitting) body position, Straub tail, and slight to moderate convulsions of forelimbs, sometimes interrupted by further generalized tonic-clonic seizures. In order to reduce mortality, SE was terminated by diazepam (10 mg/kg i.p.; diazepam-ratiopharm 10, injection solution) 90 min after SE onset. […] In the sham-SE group mice were treated with the same treatment scheme as the pilo-SE group but pilocarpine was replaced by 0.9% sodium chloride solution. The mortality in the pilo-SE model in mice is relatively high (overall about 50%) and can vary markedly between experimental groups/days. Therefore we had to start with a large number of mice for SE induction in order to reliably obtain a group size of 20-22 animals for the MEST.
Brain samples from pilocarpine treated mice and untreated mice were snap frozen and tissue was lysed in buffer containing 25 mM Tris-HCl, pH 8, 50 mM NaCl, 0.5% (w/v) sodium deoxycholate (DOC), and 0.5% (w/v) Triton X-100 and supplemented with complete protease inhibitor (Roche, Mannheim, Germany) and Phosphostop (NEB, USA). Disruption of cell lysates was performed by drawing up the cell suspension twenty times into a syringe with a small gauge needle (21 G) on ice. Protein concentrations in the lysates were determined by using the Pierce BCA Protein Assay kit (Thermo Scientific, Bonn, Germany) according to the manufacturer's instructions. […] Membranes were incubated with primary antibodies anti S6 1:1000, anti S6 Phospho Serin (240/244) 1:1000, anti S6 Phospho Serin (235/236) 1:2000 (NEB) and anti-Actin 1:100 (Sigma-Aldrich) for 1 h in 2% milk in PBST at room temperature (RT) and washed three times for 10 min in PBS-T. Secondary antibodies anti-rabbit-HRP 1:1000 (Dako, Hamburg, Germany) were incubated for 1 h in 2% milk in PBST at RT and washed three times for 10 min in PBST. Proteins were detected by enhanced chemiluminescence using SuperSignal West Femto Chemiluminescent Substrate (Thermo Scientific) and the ChemiDoc system (Bio-Rad, Munich, Germany) with QuantityOne software (Bio-Rad) according to the manufacturer's protocol. Relative protein expressions were quantified densitometrically with QuantityOne (Bio-Rad) software and calculated by normalization to the reference signals of actin with GraphPad Prism software (GraphPad, San Diego, CA, USA).
Pilocarpine pre-treated and naïve mice were treated with a single oral dose of Cpd. 3 (40 mg/kg), Cpd. 8 (25 mg/kg), everolimus (5 mg/kg) or vehicle. 5 mice per group were utilized and sacrificed after 3 hours.

[3] = system: female NMRI mice, nonepileptic (sham-SE) and epileptic (pilo-SE); assay: Maximal electroshock seizure threshold test (MEST); format: in vivo, mouse; details: pretreatment 3 h
Description: A total of 166 adult female NMRI mice were used obtained from Charles River (Sulzfeld, Germany) at a weight range of 21-25 g (mice). Animals were kept under the following conditions: Housing: Animals were housed in groups of max. 8 mice under controlled conditions (temperature: 22±1° C.; humidity: 50% 60%/), under a 12-h light-dark cycle (lights on at 6:00 a.m.). Feeding: Standard laboratory chow (Altromin 1324 standard diet, Altromin Spezialfutter GmbH, Lage, Germany) was provided ad libitum. Drinking water: Tap water was provided ad libitum.
The MEST determines a population seizure threshold in groups of ˜20 animals and not the threshold for an individual animal. In the present study, the MEST was determined by a staircase procedure as previously described. A stimulator (BMT Medizintechnik, Berlin, Germany) that delivered a constant current (adjustable from 1-200 mA regardless of the impedance of the animal) with sinusoidal pulses (50/sec) for 0.2 sec was used.
Current administration was performed via bilateral transcorneal stimulation (using copper electrodes). Before transcorneal stimulation, a drop of tetracaine solution (2%) was administered to the eyes of the mouse for local anesthesia. Two minutes later, the mouse was restrained by hand to press the copper electrodes on both corneas while the stimulus was applied by stepping on a foot pedal switch connected with the stimulator. Electrodes were covered with soft leather and soaked with saline before each current application. […] The first stimulation was started with a current near to the control threshold.
3 (HCl): 40/100 mg in 10 ml (Suspension; 5% PEG 400 and 2% Tween 80, HPBCD (10%6)) • Cpd. 8 (HCl): 12.5/25 mg in 10 ml (5% PEG 400 and 2% Tween 80, HPBCD (10%))
Statistical analysis were calculated using Student's t-test. All tests were used two-sided; a P<0.05 was considered significant.
We performed no special tests for the determination of adverse effects. Mice were observed about 30 min after injection in their home cages for obvious sedation or reduction of wellbeing. Five minutes before electrical stimulation mice were again observed in their home cages and two minutes before stimulation during handling procedure for treatment with local anaesthesia. Every obvious variation from normal behavior was noted. Only phenobarbital induced noticeable sedation which lasted for more than 60 min. All other test drugs (including vehicle solutions) were tolerated without any obvious adverse effects.

pPKB S473 in A2058 cells = assay: In-cell Western blot, pPKB S473; format: cell-based; details: Homo sapiens, A2058, 1 h, treated for 1 hour, normalized to α-tubulin
[4] = system: pS6 S235/S236 in A2058 cells; assay: In-cell Western blot, pS6 S235/S236; format: cell-based; details: Homo sapiens, A2058, 1 h, treated for 1 hour, normalized to α-tubulin

T1 sequence (P42345 1360-2549): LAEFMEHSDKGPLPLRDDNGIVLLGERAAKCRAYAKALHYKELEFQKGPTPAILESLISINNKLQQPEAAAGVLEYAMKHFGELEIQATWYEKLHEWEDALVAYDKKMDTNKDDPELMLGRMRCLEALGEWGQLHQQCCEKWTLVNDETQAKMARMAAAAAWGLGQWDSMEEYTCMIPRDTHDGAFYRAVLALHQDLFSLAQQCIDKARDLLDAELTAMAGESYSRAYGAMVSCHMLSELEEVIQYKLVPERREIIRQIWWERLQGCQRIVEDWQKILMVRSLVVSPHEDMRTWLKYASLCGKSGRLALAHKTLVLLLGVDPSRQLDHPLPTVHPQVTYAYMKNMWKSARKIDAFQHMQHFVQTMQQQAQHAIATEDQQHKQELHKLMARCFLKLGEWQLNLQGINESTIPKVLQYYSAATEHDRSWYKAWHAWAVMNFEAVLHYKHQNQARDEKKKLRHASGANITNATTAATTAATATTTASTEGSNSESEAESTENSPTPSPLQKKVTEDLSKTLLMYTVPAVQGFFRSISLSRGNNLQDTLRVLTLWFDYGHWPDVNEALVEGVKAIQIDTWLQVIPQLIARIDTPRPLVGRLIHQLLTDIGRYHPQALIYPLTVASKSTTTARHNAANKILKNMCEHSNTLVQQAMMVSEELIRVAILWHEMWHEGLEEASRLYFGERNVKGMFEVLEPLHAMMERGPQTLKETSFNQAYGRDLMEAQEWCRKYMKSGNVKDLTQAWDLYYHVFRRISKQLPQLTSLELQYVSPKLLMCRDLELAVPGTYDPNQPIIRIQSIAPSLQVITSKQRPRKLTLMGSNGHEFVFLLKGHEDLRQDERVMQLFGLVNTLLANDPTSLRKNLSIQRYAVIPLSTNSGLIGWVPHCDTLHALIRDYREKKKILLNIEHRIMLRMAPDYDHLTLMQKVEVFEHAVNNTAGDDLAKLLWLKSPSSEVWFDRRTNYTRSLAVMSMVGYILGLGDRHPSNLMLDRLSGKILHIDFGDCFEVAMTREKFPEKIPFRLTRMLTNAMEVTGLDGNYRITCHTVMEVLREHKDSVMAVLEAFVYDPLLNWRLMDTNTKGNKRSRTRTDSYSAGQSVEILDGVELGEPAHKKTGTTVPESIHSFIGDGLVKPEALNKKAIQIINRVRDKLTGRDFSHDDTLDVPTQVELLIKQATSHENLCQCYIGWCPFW

SMILES: Nc1ncc(-c2nc(N3CCOCC3)nc(N3CCSCC3)n2)c(C(F)(F)F)n1
IC50 [1]: 394 nM

SMILES: CO[C@H]1C[C@@H]2CC[C@@H](C)[C@@](O)(O2)C(=O)C(=O)N2CCCC[C@H]2C(=O)O[C@H]([C@H](C)C[C@@H]2CC[C@@H](OCCO)[C@H](OC)C2)CC(=O)[C@H](C)/C=C(\C)[C@@H](O)[C@@H](OC)C(=O)[C@H](C)C[C@H](C)/C=C/C=C/C=C/1C [everolimus, reference compound]
decrease of S6 phosphorylation (S235/236) versus control ([2]; epileptic (pilocarpine pre-treated) mice): No significant changes | S6 phosphorylation / mTOR signaling in brain (FIG. 3B) ([2]; epileptic/pilocarpine pre-treated and naïve mice, single oral dose): did not show significant mTOR signaling inhibition in brain | decrease of S6 phosphorylation (S235/236) versus control ([2]; naïve mice): No significant changes | Threshold difference between nonepileptic and epileptic ([3]; 5 mg/kg everolimus p.o.): 20% | Threshold difference between vehicle and drug threshold, epileptic ([3]; 5 mg/kg everolimus p.o.): 16% | Threshold difference between vehicle and drug threshold, nonepileptic ([3]; 5 mg/kg everolimus p.o.): 13% | Threshold difference between nonepileptic and epileptic ([3]; 10 mg/kg everolimus p.o.): 1% | Threshold difference between vehicle and drug threshold, nonepileptic ([3]; 10 mg/kg everolimus p.o.): 10%

SMILES: Nc1ncc(-c2nc(N3CCNCC3)nc(N3CCOCC3)n2)c(C(F)(F)F)n1
IC50 [1]: 2830 nM

SMILES: C[C@@H]1COCCN1c1nc(-c2cnc(N)cc2C(F)F)nc(N2[C@H](C)COC[C@H]2C)n1 [Compound 78, 4-(difluoromethyl)-5-[4-[(3R,5R)-3,5-dimethylmorpholin-4-yl]-6-[(3R)-3-methylmorpholin-4-yl]-1,3,5-triazin-2-yl]pyridin-2-amine]
IC50 (pPKB S473 in A2058 cells): 506 nM | IC50 [4]: 392 nM

SMILES: Nc1cc(C(F)F)c(-c2nc(N3CCOCC34CCC4)nc(N3CCOCC34CCC4)n2)cn1 [Compound 55, 5-[4,6-bis(8-oxa-5-azaspiro[3.5]nonan-5-yl)-1,3,5-triazin-2-yl]-4-(difluoromethyl)pyridin-2-amine]
IC50 (pPKB S473 in A2058 cells): 942 nM | IC50 [4]: 526 nM

Further lines, results first:

IC50 [1]: 796 nM
SMILES: Nc1cc(C(F)(F)F)c(-c2nc(N3CCNCC3)nc(N3CCOCC3)n2)cn1

IC50 [1]: 118 nM
SMILES: Nc1cc(C(F)(F)F)c(-c2nc(N3CCOCC3)nc(N3CCSCC3)n2)cn1
